Reference: BindingDB's records for doi:10.1016/j.bmcl.2014.08.026 (Rhône-Poulenc Rorer, 2014)

Experiment: Antagonist activity at CRTH2 receptor in human whole blood assessed as inhibition of PGD2-induced eosinophil shape change after 10 mins by fluorescence assay

IC50: 8 nM
Structure (SMILES): Cc1c(Cc2ccccc2S(=O)(=O)c2ccccc2)c2c(n1CC(=O)O)CCNC2=O
